The record followed here is patent US10316017B2, “COT modulators and methods of use thereof” (Gilead Sciences, Inc., priority 2015, dated 2019).

The structures appear in SMILES notation. Like-named read-outs stand apart in the source and are kept apart here. Bounds are passed on as bounds.

Test [1] addresses T1, human Cot catalytic domain (30-397 amino acids) (Homo sapiens, UniProt P41279).
T1 construct: Purified recombinant human Cot catalytic domain (30-397 amino acids) was purchased from Cama Biosciences; purchased Cama Biosciences (so in the source)
The test is described as follows: High Throughput Cot Biochemical Assay (KinEASE TR-FRET). Conditions: read-out: IC50 HTRF. An outline of the steps: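 Phosphorylation of 1 μM XL665-STK3 peptide by 5 nM Cot catalytic domain was measured by time-resolved FRET using a europium […] antibody. ATP was 400 μM; buffer was 10 mM MOPS pH 7.0 with Mg2+ and DTT.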
On the technique in general: Time-resolved FRET reads energy transfer from a long-lived donor to a nearby acceptor.

For test [2], the system named is TNFα production in LPS-stimulated human monocytes. Nature of the test: Cot Monocyte TNFα Cell Based Assay. The note with it: Homo sapiens, Monocyte, read-out: EC50 TNF. The method, boiled down: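 Percent-of-control values derive from TR-FRET ratios of TNFα in spun-down media, referenced to unstimulated and LPS-stimulated wells. Exposure: 1 h compound preincubation, then 50 pg/ml LPS for 4 h, both at 37 °C, with 0.5% final DMSO.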

Setting [3] is: Cot KinEASE TR-FRET (HTRF) biochemical assay, 400 μM ATP.
Setting [4] is: TNFα in LPS-stimulated human monocytes.
The mark [5] stands for this setting: Cot KinEASE TR-FRET, 400 μM ATP.
[6] abbreviates: LPS-stimulated human monocytes, TNFα TR-FRET.
[7] abbreviates: Cot biochemical HTRF (KinEASE TR-FRET) assay.

T1 sequence (P41279 30-397): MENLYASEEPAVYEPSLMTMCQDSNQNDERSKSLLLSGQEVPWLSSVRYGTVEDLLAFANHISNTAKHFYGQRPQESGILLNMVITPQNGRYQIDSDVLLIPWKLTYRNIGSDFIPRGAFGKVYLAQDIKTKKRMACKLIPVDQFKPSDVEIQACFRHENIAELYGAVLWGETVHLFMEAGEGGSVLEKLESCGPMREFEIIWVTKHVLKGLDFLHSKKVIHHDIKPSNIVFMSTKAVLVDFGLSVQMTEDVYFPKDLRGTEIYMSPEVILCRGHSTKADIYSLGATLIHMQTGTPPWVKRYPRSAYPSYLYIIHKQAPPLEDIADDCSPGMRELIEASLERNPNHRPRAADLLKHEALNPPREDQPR

By IC50 is commonly meant the concentration that inhibits the measured activity by half. What is called EC50 is the midpoint of the concentration-response curve. As to `CC(C)(C)CNc1c(C#N)cnc2c(Cl)cc(N[C@@H](c3cccc(-c4ccccc4)c3)c3cn(C4CC4)nn3)cc12` [Example 95, (S)-6-(([1,1'-biphenyl]-3-yl(1-cyclopropyl-1H-1,2,3-triazol-4-yl)methyl)amino)-8-chloro-4-(neopentylamino) quinoline-3-carbonitrile], in test [1] (setting [3]), the IC50 worked out at 24 nM. In addition, the EC50 in test [2] (setting [4]) is greater than 1000 nM.

Take `Cc1cc(C#N)ccc1[C@H](Nc1cc(C#N)c2ncc(C#N)c(NCC(C)(C)C)c2c1)c1cn(C2(C(F)F)CC2)nn1` [Example 1139, (S)-6-(((4-cyano-2-methylphenyl)(1-(1-(difluoromethyl)cyclopropyl)-1H-1,2,3-triazol-4-yl)methyl)amino)-4-(neopentylamino)quinoline-3,8-dicarbonitrile]: the IC50 in test [1] (setting [5]) worked out at 13 nM. Besides, in test [2] (setting [6]), the EC50 was determined as 82 nM.

In the case of `CC(C)(C)CNc1c(C#N)cnc2c(Cl)cc(N[C@@H](c3ccc(F)cc3)c3cn(-c4cccnc4)nn3)cc12` [Example 394, (S)-8-chloro-6-(((4-fluorophenyl)(1-(pyridin-3-yl)-1H-1,2,3-triazol-4-yl)methyl)amino)-4-(neopentylamino)quinoline-3-carbonitrile], the IC50 in test [1] (setting [3]) is 36 nM. For the same compound, the EC50 in test [2] (setting [4]) came to 160 nM.

For `COC(=O)c1cccc([C@H](Nc2cc(Cl)c3ncc(C#N)c(Nc4ccc(F)c(Cl)c4)c3c2)c2cn(C3CCN(C(C)(C)C)CC3)nn2)c1` [Example 728, methyl (S)-3-((1-(1-(tert-butyl)piperidin-4-yl)-1H-1,2,3-triazol-4-yl)((8-chloro-4-((3-chloro-4-fluorophenyl)amino)-3-cyanoquinolin-6-yl)amino)methyl)benzoate], the IC50 in test [1] (setting [7]) stood at 3 nM. The EC50 in test [2] (setting [4]) was 124 nM.

As to `CCN1CCC(n2cc([C@@H](Nc3cc(F)c4ncc(C#N)c(Nc5ccc(F)c(Cl)c5)c4c3)c3ccc(Cl)cc3)nn2)CC1` [Example 813, (S)-4-((3-chloro-4-fluorophenyl)amino)-6-(((4-chlorophenyl)(1-(1-ethylpiperidin-4-yl)-1H-1,2,3-triazol-4-yl)methyl)amino)-8-fluoroquinoline-3-carbonitrile], in test [1] (setting [7]), the IC50 came to 6 nM. Further, the EC50 in test [2] (setting [4]) was 116 nM.

As for `CC(C)(C)CNc1c(C#N)cnc2c(C#N)cc(N[C@H](c3cn(Cc4c(F)cccc4F)nn3)c3ccccc3Cl)cc12` [Example 1053, (S)-6-(((2-chlorophenyl)(1-(2,6-difluorobenzyl)-1H-1,2,3-triazol-4-yl)methyl)amino)-4-(neopentylamino)quinoline-3,8-dicarbonitrile], the IC50 in test [1] (setting [5]) is 26 nM. The EC50 in test [2] (setting [6]) was found to be 200 nM.

In the case of `[2H][C@](Nc1cc(C#N)c2ncc(C#N)c(NCC(C)(C)C)c2c1)(c1ccccc1)c1cn(C2CC2)nn1` [Example 84, (S)-6-(((1-cyclopropyl-1H-1,2,3-triazol-4-yl) (phenyl)methyl-d)amino)-4-(neopentylamino) quinoline-3,8-dicarbonitrile], the IC50 in test [1] (setting [3]) stood at 2 nM. For the same compound, the EC50 in test [2] (setting [4]) was 47 nM.

Turning to `N#Cc1cnc2c(Cl)cc(N[C@@H](c3cccc(Cl)c3)c3cn(C4CC4)nn3)cc2c1Nc1cnc(F)c(F)c1` [Example 266, (S)-8-chloro-6-(((3-chlorophenyl)(1-cyclopropyl-1H-1,2,3-triazol-4-yl)methyl)amino)-4-((5,6-difluoropyridin-3-yl)amino)quinoline-3-carbonitrile], the IC50 in test [1] (setting [3]) stood at 16 nM. Also, the EC50 in test [2] (setting [4]) was 424 nM.

Consider `CC(C)n1cc([C@@H](Nc2cc(Cl)c3ncc(C#N)c(Nc4cnc(F)c(F)c4)c3c2)c2ccc(F)cc2)nn1` [Example 458, (S)-8-chloro-4-((5,6-difluoropyridin-3-yl)amino)-6-(((4-fluorophenyl)(1-isopropyl-1H-1,2,3-triazol-4-yl)methyl)amino)quinoline-3-carbonitrile], for which the IC50 in test [1] (setting [7]) stood at 17 nM. Also, the EC50 in test [2] (setting [4]) worked out at 598 nM.

Take `[2H][C@](Nc1cc(Cl)c2ncc(C#N)c(NCC(C)(C)C)c2c1)(c1ccc(Cl)cc1)c1cn(C2CCN(C3CC3)CC2)nn1` [Example 982, (S)-8-chloro-6-(((4-chlorophenyl)(1-(1-cyclopropylpiperidin-4-yl)-1H-1,2,3-triazol-4-yl)methyl-d)amino)-4-(neopentylarnino) quinoline-3-carbonitrile]: the IC50 in test [1] (setting [5]) worked out at 23 nM. In addition, the EC50 in test [2] (setting [6]) was 540 nM.

Take `CCC(Nc1c(C#N)cnc2c(Cl)cc(N[C@@H](c3ccc(F)cc3)c3c[nH]nn3)cc12)c1ccccc1F` (stereo partly drawn) [Example 397, 8-chloro-6-(((S)-(4-fluorophenyl)(1H-1,2,3-triazol-4-yl)methyl)amino)-4-((1-(2-fluorophenyl)propyl)amino) quinoline-3-carbonitrile]: in test [1] (setting [3]), the IC50 was 125 nM. Moreover, the EC50 in test [2] (setting [4]) was determined as 726 nM.

With `CC(C)(C)N1CCC(n2cc([C@@H](Nc3cc(Cl)c4ncc(C#N)c(NC5CC6CCC5C6)c4c3)c3ccccc3)nn2)CC1` (stereo partly drawn) [Example 596, 4-(bicyclo[2.2.1]heptan-2-ylamino)-6-(((S)-(1-(1-(tert-butyl)piperidin-4-yl)-1H-1,2,3-triazol-4-yl)(phenyl)methyl)amino)-8-chloroquinoline-3-carbonitrile], in test [1] (setting [7]), the IC50 came to 33 nM. Besides, the EC50 in test [2] (setting [4]) is 3050 nM.

For the compound `Cc1c(C#N)cccc1[C@H](Nc1cc(Cl)c2ncc(C#N)c(NCC(C)(C)C)c2c1)c1cn(C2(C(N)=O)CCC2)nn1` [Example 1009, (S)-1-(4-(((8-chloro-3-cyano-4-(neopentylamino)quinolin-6-yl)amino)(3-cyano-2-methylphenyl)methyl)-1H-1,2,3-triazol-1-yl)cyclobutane-1-carboxamide], the IC50 in test [1] (setting [5]) was found to be 1 nM. Moreover, in test [2] (setting [6]), the EC50 was 67 nM.

As for `[2H][C@](Nc1cc(Cl)c2ncc(C#N)c(N[C@H]3CCCC[C@H]3N)c2c1)(c1ccc(F)cc1)c1cn(C2CC2)nn1` [Example 230, 4-(((1S,2R)-2-aminocyclohexyl)amino)-8-chloro-6-(((S)-(1-cyclopropyl-1H-1,2,3-triazol-4-yl)(4-fluorophenyl)methyl-d)amino)quinoline-3-carbonitrile], in test [1] (setting [3]), the IC50 turned out to be 337 nM. Moreover, the EC50 in test [2] (setting [4]) is greater than 10000 nM.

For the compound `[2H][C@](Nc1cc(F)c2ncc(C#N)c(NC(CCC#N)c3ccccc3)c2c1)(c1ccc(F)cc1)c1cn(C2CC2)nn1` (stereo partly drawn) [Example 255, 4-((3-cyano-1-phenylpropyl)amino)-6-(((S)-(1-cyclopropyl-1H-1,2,3-triazol-4-yl)(4-fluorophenyl)methyl-d)amino)-8-fluoroquinoline-3-carbonitrile], in test [1] (setting [3]), the IC50 amounted to 5 nM. In test [2] (setting [4]), the EC50 was 62 nM.

Turning to `CC(C)(C)N1CCC(n2cc([C@@H](Nc3cc(Cl)c4ncc(C#N)c(N[C@H]5CCc6ccccc65)c4c3)c3ccccc3)nn2)CC1` [Example 581, 6-(((S)-(1-(1-(tert-butyl)piperidin-4-yl)-1H-1,2,3-triazol-4-yl)(phenyl)methyl)amino)-8-chloro-4-(((S)-2,3-dihydro-1H-inden-1-yl)amino)quinoline-3-carbonitrile], in test [1] (setting [7]), the IC50 stood at 333 nM. In addition, the EC50 in test [2] (setting [4]) came to 4220 nM.

On to `CC(C)(C)N1CCC(n2cc([C@@H](Nc3cc(Cl)c4ncc(C#N)c(Nc5ccc(F)c(Cl)c5)c4c3)c3cccc(C(=O)N4CCCCC4)c3)nn2)CC1` [Example 676, (S)-6-(((1-(1-(tert-butyl)piperidin-4-yl)-1H-1,2,3-triazol-4-yl)(3-(piperidine-1-carbonyl)phenyl)methyl)amino)-8-chloro-4-((3-chloro-4-fluorophenyl)amino)quinoline-3-carbonitrile], for which the IC50 in test [1] (setting [7]) amounted to 6 nM. The EC50 in test [2] (setting [4]) worked out at 434 nM.

Regarding `[2H][C@](Nc1cc(-c2cnn(C)c2)c2ncc(C#N)c(NCC(C)(C)C)c2c1)(c1ccc(F)cc1)c1cn(C2CC2)nn1` [Example 137, (S)-6-(((1-cyclopropyl-1H-1,2,3-triazol-4-yl)(4-fluorophenyl)methyl-d)amino)-8-(1-methyl-1H-pyrazol-4-yl)-4-(neopentylamino) quinoline-3-carbonitrile], the IC50 in test [1] (setting [3]) is 606 nM. For the same compound, the EC50 in test [2] (setting [4]) was 4370 nM.

For `CC(C)n1cc([C@@H](Nc2cc(Cl)c3ncc(C#N)c(Nc4cccc(Cl)c4F)c3c2)c2ccccc2)nn1` [Example 591, (S)-8-chloro-4-((3-chloro-2-fluorophenyl)amino)-6-(((1-isopropyl-1H-1,2,3-triazol-4-yl)(phenyl)methyl)amino) quinoline-3-carbonitrile], in test [1] (setting [7]), the IC50 is 27 nM. Besides, the EC50 in test [2] (setting [4]) amounted to 713 nM.

Take `[2H][C@](Nc1cc(Cl)c2ncc(C#N)c(Nc3cnc(F)c(F)c3)c2c1)(c1ccc(F)cc1)c1cn(C(C)(C)C)nn1` [Example 381, (S)-6-(((1-(tert-butyl)-1H-1,2,3-triazol-4-yl)(4-fluorophenyl)methyl-d)amino)-8-chloro-4-((5,6-difluoropyridin-3-yl)amino)quinoline-3-carbonitrile]: the IC50 in test [1] (setting [3]) amounted to 44 nM. Besides, in test [2] (setting [4]), the EC50 was found to be 644 nM.

Consider `[2H][C@](Nc1cc(Cl)c2ncc(C#N)c(N[C@@H](c3ccccc3)[C@@H]3C[C@H]3C#N)c2c1)(c1ccc(F)cc1)c1cn(C2CC2)nn1` [Example 111, 8-chloro-4-(((R)-((1R,2R)-2-cyanocyclopropyl) (phenyl)methyl)amino)-6-(((S)-(1-cyclopropyl-1H-1,2,3-triazol-4-yl)(4-fluorophenyl)methyl-d)amino)quinoline-3-carbonitrile], for which the IC50 in test [1] (setting [3]) came out at 72 nM. Further, in test [2] (setting [4]), the EC50 was 960 nM.
